The subject of data set [1] is SpADH2. Nature of the data set: Cofactor spectrum of syringyl alcohol oxidation (HPLC specific activity), WT. Format: biochemical, Sphingobium sp. SYK-6. The note with it: 1a 5 mM, cofactor 7.5 mM, pH 7.5, 30℃; for utilization of the tsNCB by SpADH2 (in words): 5 µg SpADH2, 1 h. The method, then: Fig. 2 Cofactor spectrum of syringyl alcohol oxidation catalyzed by SpADH2. The darkness of the background color for each cofactor stands for the activity of SpADH2 utilizing various cofactors. (a) NAD(P) ^+ and NMN^+ are shown in purple background. (b) tsNCBs are shown in cyan background. The evaluation of cofactor spectrum of SpADH2 was carried out under following conditions: 50 mM PBS buffer (pH 7.5) and 30℃, with 1a (5 mM) as substrate and different cofactors (7.5 mM) as cofactor. For NAD(P)^+ and NMN^+, 0.05 µg SpADH2 was added, and for tsNCBs, 5 µg SpADH2 was added. The results were analyzed by HPLC after 1 h reaction
(§1) Specific activity of SpADH2 in cofactor spectrum study was determined by HPLC analysis. PBS (pH 7.5) buffer was pre-heated at 30°C for 15 min. For NAD(P)^+ and NMN^+, 0.05 µg SpADH2 was added to PBS buffer (100 µL). For tsNCBs, 5 µg SpADH2 was added. A final concentration of 7.5 mM cofactor was added to the reaction mixture. Finally, a final concentration of 5 mM substrate was added to start the reaction. The reactions were conducted at 30°C.
(§2) One unit of enzyme activity is defined as the amount of enzyme required to form 1 µmol 1b per minute at pH 7.5 and 30°C. Same reaction without cofactor was used as a blank control.

Data set [2] deals with SpADH2. Nature of the data set: Preliminary evaluation of NCB usage in oxidation of syringyl alcohol (HPLC). Type of data set: biochemical, Sphingobium sp. SYK-6. To be noted: preliminary assay: 1a 1 mM, NCB 10 mM, pH 7.0, 30℃, 1 h. The protocol:
Sphingobium sp. SYK-6 belongs to genus Sphingomonas, and a search in UniProtKB identified 19 ADHs from this strain, including 5 PQQ-dependent and the remaining NAD^+/NADP^+-dependent enzymes. Two sequences annotated as aryl-alcohol dehydrogenases (SLG_34580 and SLG_24930) (Table. S1) were selected for heterologous expression (Fig. S1) and named SpADH1 and SpADH2, respectively. Their ability to utilize NCBs was assessed by oxidation of syringyl alcohol (1a) to produce syringaldehyde (1b) (Fig. 1a).
Fig. 1 (a) Reaction scheme of SpADH2-catalyzed oxidation of syringyl alcohol. (b) Specific activity of SpADH2 toward four NCBs. The evaluation of NCBs usage by SpADH2 was carried out under following conditions: 50 mM PBS buffer (pH 7.0) and 30℃, with 1a (1 mM) as substrate and 4 typical NCBs (10 mM) as cofactor. A total of 0.1 mg/mL enzyme was added to a 200 µL reaction mixture, and was analyzed by HPLC after 1 h reaction
Reaction samples were analyzed using Agilent 1260 Infinity II LC system under reversed phase condition. Column: Agilent C18 column. Analytical conditions for 1a and 1b: mobile phase: 50% water: 50% acetonitrile. The retention time for standard product 1b was 3.27 min, under flow rate of 1 mL·min^− 1and temperature of 30°C (Fig. S4).

The test system of data set [3] is SpADH2 variant H43L/A290I. As to the kind of experiment: Cofactor spectrum (HPLC specific activity), variant H43L/A290I. Type of data set: biochemical, Sphingobium sp. SYK-6. To be noted: 1a 5 mM, cofactor 7.5 mM, pH 7.5, 30℃, 5 µg enzyme. The protocol:
(§3) Fig. 8 Cofactor spectrums of SpADH2 and its variants. The darkness of color for each cofactor stands for the activity. For each cofactor cube, top left: WT, top right: H43L, bottom left: A290I, bottom right: H43L/A290I. (a) Natural cofactors and NMN^+ are shown in purple. (b) tsNCBs are shown in cyan. The evaluation of cofactor spectrum was carried out under following conditions: 50 mM PBS buffer (pH 7.5) and 30℃, with 1a (5 mM) as substrate and different cofactors (7.5 mM) as cofactor. For NAD(P)^+ and NMN^+, 0.05 µg enzyme was added, and for tsNCBs, 5 µg enzyme was added. The results were analyzed by HPLC after 1 h reaction
as §1, §2

Data set [4] relates to SpADH2 variant H43L. As to the kind of experiment: Cofactor spectrum (HPLC specific activity), variant H43L. Type of data set: biochemical, Sphingobium sp. SYK-6. To be noted: 1a 5 mM, cofactor 7.5 mM, pH 7.5, 30℃, 5 µg enzyme. The protocol:
as §3, §1, §2

In data set [5] the test system is NC(=O)c1ccc[n+]([C@@H]2O[C@H](COP(=O)([O-])OP(=O)(O)OC[C@H]3O[C@@H](n4cnc5c(N)ncnc54)[C@H](O)[C@@H]3O)[C@@H](O)[C@H]2O)c1. As to the kind of experiment: Cofactor kinetic assay, WT. Format: biochemical, Sphingobium sp. SYK-6. The note with it: other: WT, cofactor (= label) varied, 1a fixed at 5 mM, pH 7.5, 30°C. The protocol: (§4) Specific activity of SpADH2 in substrate spectrum study was measured spectrophotometrically. PBS (pH 7.5) buffer was pre-heated at 30°C for 15 min. For NAD^+, 0.05 µg SpADH2 was added to the PBS buffer (100 µL), and a final concentration of 2 mM NAD^+ was added. For tsNCBs cofactor p-BANA^+, 5 µg SpADH2 and a final concentration of 7.5 mM p-BANA^+ was added. The mixture was carried out in a 96-well microplate, and a final concentration of 5 mM substrate was added to start the reaction. The microplate was incubated in 30°C for 1 h. Florescent probes (2-[2-(1,4-dihydro-1-methyl-3-quinolinyl)ethenyl]-1,3,3-trimethyl-3H-indolium) in a final concentration of 0.2 mM (100 µL) was added (Scheme S1), and the microplate was placed in a microplate reader immediately for measurement under 537 nm (Fomin et al. [2016]).
(§5) Kinetic analysis of SpADH2 and its variants were carried out following Michaelis-Menten equation or Michaelis-Menten excess substrate inhibition equation. For of the substrate kinetic assays, concentrations of cofactors were fixed at 5 mM for NAD^+ and 7.5 mM for p-BANA^+. For cofactor kinetic assays, the concentration of 1a was fixed at 5 mM.
(§6) Specific activity was determined spectrophotometrically as above except that gradient 1a (0−20 mM) or cofactor (0−35 mM) concentrations were applied.
(§7) Cofactor specificity ratio (CSR) represents the ratio of catalytic efficiency of p-BANA^+ to NAD^+ for each enzyme, and relative specificity (RS) stands for the CSR ratio of variants to WT (King et al. [2020]).

The subject of data set [6] is SpADH2 variant A290I. As to the kind of experiment: Cofactor kinetic assay, A290I. Type of data set: biochemical, Sphingobium sp. SYK-6. The protocol:
as §4, §5, §6, §7

Data set [7] relates to SpADH2 variant H43L/A290I. As to the kind of experiment: Cofactor kinetic assay, H43L/A290I. To be noted: cofactor (= label) varied, 1a fixed at 5 mM. Format: biochemical, Sphingobium sp. SYK-6. The method, then:
as §4, §5, §6, §7

Data set [8] has as its system SpADH2 variant H43L/A290I. As to the kind of experiment: Substrate kinetic assay, H43L/A290I. Format: biochemical, Sphingobium sp. SYK-6. The protocol:
as §4, §5, §6, §7

Data set [9] has as its target T1, SpADH2 WT (Sphingobium sp. SYK-6, UniProt G2IIZ8). Nature of the data set: Cofactor kinetic assay, WT. Type of data set: biochemical. The note with it: cofactor (= label) varied, 1a fixed at 5 mM. The method, then:
as §4, §5, §6, §7

The target in data set [10] is T1, SpADH2 WT. Nature of the data set: Substrate kinetic assay, WT. Type of data set: biochemical. To be noted: 1a varied, cofactor (= label) fixed: 5 mM NAD^+ or 7.5 mM p-BANA^+. The protocol:
as §4, §5, §6, §7

The test system of data set [11] is SpADH2 variants (H43L, A290I, H43L/A290I). As to the kind of experiment: Cofactor spectrum (HPLC specific activity), all variants together. Type of data set: biochemical, Sphingobium sp. SYK-6. To be noted: 1a 5 mM, cofactor 7.5 mM, pH 7.5, 30℃. The method, then:
as §3, §1, §2

The test system of data set [12] is SpADH2 variant H43L. As to the kind of experiment: Cofactor kinetic assay, H43L. To be noted: cofactor (= label) varied, 1a fixed at 5 mM. Format: biochemical, Sphingobium sp. SYK-6. The protocol:
as §4, §5, §6, §7

The test system of data set [13] is SpADH2 variant A290I. As to the kind of experiment: Substrate kinetic assay, A290I. Type of data set: biochemical, Sphingobium sp. SYK-6. The protocol: as §4, §5, §6, §7
Data set [14] deals with SpADH2 variant H43L. Nature of the data set: Substrate kinetic assay, H43L. To be noted: 1a varied, cofactor (= label) fixed: 5 mM NAD^+ or 7.5 mM p-BANA^+. Format: biochemical, Sphingobium sp. SYK-6. The method, then:
as §4, §5, §6, §7

Where [15] appears, read: 1a varied, cofactor (= label) fixed: 5 mM NAD^+ or 7.5 mM p-BANA^+.
Setting [16] is: substrate kinetics, cofactor = label.

A word on the Km: it is the concentration of substrate that gives half-maximal velocity.

T1 sequence (G2IIZ8 1-372): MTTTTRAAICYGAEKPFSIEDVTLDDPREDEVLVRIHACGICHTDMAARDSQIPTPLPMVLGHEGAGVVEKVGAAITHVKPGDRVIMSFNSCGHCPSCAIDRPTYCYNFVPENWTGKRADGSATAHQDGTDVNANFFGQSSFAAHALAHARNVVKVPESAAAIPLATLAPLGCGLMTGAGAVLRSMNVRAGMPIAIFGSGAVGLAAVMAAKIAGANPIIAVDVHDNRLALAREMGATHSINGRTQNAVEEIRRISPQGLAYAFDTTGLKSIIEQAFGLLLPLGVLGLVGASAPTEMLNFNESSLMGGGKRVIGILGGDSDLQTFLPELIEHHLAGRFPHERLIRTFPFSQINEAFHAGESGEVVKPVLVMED

On to `NC(=O)c1ccc[n+](CCCc2ccccc2)c1` [P3NA^+, 3-carbamoyl-1-(3-phenylpropyl)pyridin-1-ium], for which the “utilization of the tsNCB by SpADH2 (in words)” value with SpADH2 [1] is listed as “No detectable activity”. Moreover, the “utilization of the NCB by SpADH2 (in words)” value in the data set with SpADH2 [2] is “could not be utilized”. Moreover, in data set [3], the “utilization of the tsNCB (in words)” value is “acquired capability of utilizing”.
For `NC(=O)c1ccc[n+](CCc2ccccc2)c1` [P2NA^+, 3-carbamoyl-1-phenethylpyridin-1-ium], in the data set on SpADH2 variant H43L [4], the “utilization of the tsNCB (in words)” value is given as “exhibited activity”. In addition, the “utilization of the tsNCB by SpADH2 (in words)” value with SpADH2 [1] is “No detectable activity”. Also, the “utilization of the NCB by SpADH2 (in words)” value in the data set on SpADH2 [2] is recorded as “could not be utilized”.
In the case of SpADH2 WT (Sphingobium sp. SYK-6), the Michaelis constant (Km) in data set [5] worked out at 28 ± 3 µM.
On to `NC(=O)c1ccc[n+]([C@@H]2O[C@H](COP(=O)([O-])OP(=O)(O)OC[C@H]3O[C@@H](n4cnc5c(N)ncnc54)[C@H](O)[C@@H]3O)[C@@H](O)[C@H]2O)c1` [NAD^+, reference compound], for which the kcat was 28.3 ± 0.6 min^− 1 in the data set with SpADH2 variant A290I [6] (cofactor (= label) varied, 1a fixed at 5 mM); 12.6 ± 0.2 min^− 1 in data set [7]; 18.9 ± 0.2 min^− 1 in [8] (setting [15]); 58.7 ± 1.5 min^− 1 on SpADH2 WT [9]; 134 ± 2.9 min^− 1 on SpADH2 WT [10]; 57.8 ± 1.2 min^− 1 in the data set with SpADH2 variant H43L [12]. Besides, the kcat is 41.4 ± 1.4 min^− 1 in the data set with SpADH2 variant A290I [13] (setting [15]) and 102 ± 2.3 min^− 1 in the data set with SpADH2 variant H43L [14]. Also, the Km amounted to 9 ± 1 µM in the data set on SpADH2 variant A290I [6] (cofactor (= label) varied, 1a fixed at 5 mM, pH 7.5, 30°C); 365 ± 25 µM in [7] (pH 7.5, 30°C); 99 ± 8 µM in the data set on SpADH2 variant H43L [12] (pH 7.5, 30°C). Moreover, the “fold higher catalytic efficiency (kcat/Km) than WT” value in the data set with SpADH2 variant A290I [6] (cofactor kinetics, cofactor = label) is listed as 1.5 fold. Also, the “specific activity of SpADH2 with the cofactor” value with SpADH2 [1] (0.05 µg SpADH2, 1 h) was 4.40 U/mg. In data set [8] (setting [16]), the “fold improvement in substrate inhibition (Ki) vs WT” value is on record as “up to 9 fold”. Moreover, the “catalytic activity of all variants with the cofactor (in words)” value in data set [11] is “relatively lower catalytic activity”. Further, in the data set on SpADH2 variant A290I [13] (setting [16]), the “substrate inhibition (in words)” value is on record as “no substrate inhibition was observed”.

Values taken from paper PMC12052742, “Engineering a newly identified alcohol dehydrogenase from Sphingobium Sp. for efficient utilization of nicotinamide cofactors biomimetics” (Bioresources and Bioprocessing, 2025).
